Key:
Assay type in all cases: physicochemical
[1] = Relaxivities of Gd^III chelates, inversion recovery pulse sequence on relaxometer (0.5 T) (Chart 15); details: 40.0° C., 1.0 mM in aq. MOPS/NaOH buffer, pH 7.0
[2] = Dissociation of chelates in aq. 6.0M HCl at 80° C. (acid decomplexation kinetic inertness) (Chart 17)
[3] = Dissociation of chelates in aq. 0.1M HCl at RT (acid decomplexation kinetic inertness) (Chart 20)
[4] = Dissociation of chelates in aq. 0.1M HCl at 80° C. (acid decomplexation kinetic inertness) (Chart 19)
[5] = Dissociation of chelates in aq. 1.0M HCl at 80° C. (acid decomplexation kinetic inertness) (Chart 18)
[6] = Formation of 1,5-cz-[Ln(Lig)] from 1,5-cz-Lig (metal dependent direct complexation), RT and 80° C. (Chart 9); details: pH 7.0; for conversion to 1,5-cz-[Ln(Lig)] from 1,5-cz-Lig, Bi^III: ~4% DMSO
[7] = Formation of 1,5-cz-[Ln(Lig)] from 1,5-cz-Lig (metal dependent direct complexation) (Chart 8); details: pH 7.0
[8] = Formation of 1,5-cz-[Ln(Lig)] from Lig and Ln^III ions (metal dependent click-zip), MES/NaOH buffer pH 5.2, analytical HPLC (Chart 3)

C#Cc1cccc(CN2CC[N@]3CCN(Cc4cc(-c5ccccc5)cc(CN=[N+]=[N-])n4)CC[N@@](CC2)CC(=O)[O][Gd][O]C(=O)C3)n1 [TD451]
relaxivity [1]: 2.39 mM⁻¹ s⁻¹

O=C1C[N@@]2CC[N@]3CC[N@@](CC[N@](CC2)Cc2cccc(n2)-c2cnnn2Cc2cc(-c4ccccc4)cc(n2)C3)CC(=O)[O][Gd][O]1 [TD527]
fraction of intact chelate ([2]; 1 month): 0% | fraction of intact chelate ([2]; 1 week): 0% | fraction of intact chelate ([2]; 1 hour): 2% | fraction of intact chelate ([2]; 1 day): 0% | fraction of intact chelate ([3]; 1 month): 100% | fraction of intact chelate ([3]; 1 week): 100% | fraction of intact chelate ([3]; 1 hour): 100% | fraction of intact chelate ([3]; 1 day): 100% | fraction of intact chelate ([4]; 1 month): 82% | fraction of intact chelate ([4]; 1 week): 95% | fraction of intact chelate ([4]; 1 hour): 100% | fraction of intact chelate ([4]; 1 day): 99% | fraction of intact chelate ([5]; 1 month): 0% | fraction of intact chelate ([5]; 1 week): 1% | fraction of intact chelate ([5]; 1 hour): 98% | fraction of intact chelate ([5]; 1 day): 58% | relaxivity [1]: 1.48 mM⁻¹ s⁻¹

O=C(O)CN1CC[N@]2CCN(CC(=O)O)CC[N@@](CC1)Cc1cccc(n1)-c1cnnn1Cc1cc(-c3ccccc3)cc(n1)C2 [TD650]
conversion to 1,5-cz-[Ln(Lig)] from 1,5-cz-Lig, Cu^II ([6]; A: 1 min at RT): 43% | conversion to 1,5-cz-[Ln(Lig)] from 1,5-cz-Lig, Pb^II ([6]; A: 1 min at RT): 98% | conversion to 1,5-cz-[Ln(Lig)] from 1,5-cz-Lig, Ca^II ([6]; B: 1 hour at RT): 0% | conversion to 1,5-cz-[Ln(Lig)] from 1,5-cz-Lig, Cd^II ([6]; B: 1 hour at RT): 58% | conversion to 1,5-cz-[Ln(Lig)] from 1,5-cz-Lig, Cu^II ([6]; B: 1 hour at RT): 47% | conversion to 1,5-cz-[Ln(Lig)] from 1,5-cz-Lig, Ni^II ([6]; B: 1 hour at RT): 0% | conversion to 1,5-cz-[Ln(Lig)] from 1,5-cz-Lig, Pb^II ([6]; B: 1 hour at RT): 99% | conversion to 1,5-cz-[Ln(Lig)] from 1,5-cz-Lig, Zn^II ([6]; B: 1 hour at RT): 59% | conversion to 1,5-cz-[Ln(Lig)] from 1,5-cz-Lig, Bi^III ([6]; B: 1 hour at RT): 2% | conversion to 1,5-cz-[Ln(Lig)] from 1,5-cz-Lig, Ca^II ([6]; C: 1 hour at 80° C.): 23% | conversion to 1,5-cz-[Ln(Lig)] from 1,5-cz-Lig, Cd^II ([6]; C: 1 hour at 80° C.): 98% | conversion to 1,5-cz-[Ln(Lig)] from 1,5-cz-Lig, Cu^II ([6]; C: 1 hour at 80° C.): 49% | conversion to 1,5-cz-[Ln(Lig)] from 1,5-cz-Lig, Ni^II ([6]; C: 1 hour at 80° C.): 9% | conversion to 1,5-cz-[Ln(Lig)] from 1,5-cz-Lig, Pb^II ([6]; C: 1 hour at 80° C.): 98% | conversion to 1,5-cz-[Ln(Lig)] from 1,5-cz-Lig, Zn^II ([6]; C: 1 hour at 80° C.): 91% | conversion to 1,5-cz-[Ln(Lig)] from 1,5-cz-Lig, Bi^III ([6]; C: 1 hour at 80° C.): 96% | conversion to 1,5-cz-[Ln(Lig)] from 1,5-cz-Lig, Ba^II ([6]; D: 1 week at 80° C.): 0% | conversion to 1,5-cz-[Ln(Lig)] from 1,5-cz-Lig, Ca^II ([6]; D: 1 week at 80° C.): 96% | conversion to 1,5-cz-[Ln(Lig)] from 1,5-cz-Lig, Cd^II ([6]; D: 1 week at 80° C.): 99% | conversion to 1,5-cz-[Ln(Lig)] from 1,5-cz-Lig, Cu^II ([6]; D: 1 week at 80° C.): 78% | conversion to 1,5-cz-[Ln(Lig)] from 1,5-cz-Lig, Ga^II ([6]; D: 1 week at 80° C.): 0% | conversion to 1,5-cz-[Ln(Lig)] from 1,5-cz-Lig, In^III ([6]; D: 1 week at 80° C.): 0% | conversion to 1,5-cz-[Ln(Lig)] from 1,5-cz-Lig, Ni^II ([6]; D: 1 week at 80° C.): 11% | conversion to 1,5-cz-[Ln(Lig)] from 1,5-cz-Lig, Pb^II ([6]; D: 1 week at 80° C.): 98% | conversion to 1,5-cz-[Ln(Lig)] from 1,5-cz-Lig, Sc^III ([6]; D: 1 week at 80° C.): 0% | conversion to 1,5-cz-[Ln(Lig)] from 1,5-cz-Lig, Sr^II ([6]; D: 1 week at 80° C.): 0% | conversion to 1,5-cz-[Ln(Lig)] from 1,5-cz-Lig, Y^III ([6]; D: 1 week at 80° C.): 0% | conversion to 1,5-cz-[Ln(Lig)] from 1,5-cz-Lig, Zn^II ([6]; D: 1 week at 80° C.): 99% | conversion to 1,5-cz-[Ln(Lig)] from 1,5-cz-Lig, Bi^III ([6]; D: 1 week at 80° C.): 90% | conversion to 1,5-cz-[Ln(Lig)] from 1,5-cz-Lig, Ce^III ([7]; A: 1 hour at 80° C.): 0% | conversion to 1,5-cz-[Ln(Lig)] from 1,5-cz-Lig, Dy^III ([7]; A: 1 hour at 80° C.): 0% | conversion to 1,5-cz-[Ln(Lig)] from 1,5-cz-Lig, Er^III ([7]; A: 1 hour at 80° C.): 0% | conversion to 1,5-cz-[Ln(Lig)] from 1,5-cz-Lig, Eu^III ([7]; A: 1 hour at 80° C.): 0% | conversion to 1,5-cz-[Ln(Lig)] from 1,5-cz-Lig, Gd^III ([7]; A: 1 hour at 80° C.): 0% | conversion to 1,5-cz-[Ln(Lig)] from 1,5-cz-Lig, Ho^III ([7]; A: 1 hour at 80° C.): 0% | conversion to 1,5-cz-[Ln(Lig)] from 1,5-cz-Lig, La^III ([7]; A: 1 hour at 80° C.): 0% | conversion to 1,5-cz-[Ln(Lig)] from 1,5-cz-Lig, Lu^III ([7]; A: 1 hour at 80° C.): 0% | conversion to 1,5-cz-[Ln(Lig)] from 1,5-cz-Lig, Nd^III ([7]; A: 1 hour at 80° C.): 0% | conversion to 1,5-cz-[Ln(Lig)] from 1,5-cz-Lig, Pr^III ([7]; A: 1 hour at 80° C.): 0% | conversion to 1,5-cz-[Ln(Lig)] from 1,5-cz-Lig, Sm^III ([7]; A: 1 hour at 80° C.): 0% | conversion to 1,5-cz-[Ln(Lig)] from 1,5-cz-Lig, Tb^III ([7]; A: 1 hour at 80° C.): 0% | conversion to 1,5-cz-[Ln(Lig)] from 1,5-cz-Lig, Tm^III ([7]; A: 1 hour at 80° C.): 0% | conversion to 1,5-cz-[Ln(Lig)] from 1,5-cz-Lig, Yb^III ([7]; A: 1 hour at 80° C.): 0% | conversion to 1,5-cz-[Ln(Lig)] from 1,5-cz-Lig, Ce^III ([7]; B: 1 week at 80° C.): 0% | conversion to 1,5-cz-[Ln(Lig)] from 1,5-cz-Lig, Dy^III ([7]; B: 1 week at 80° C.): 0% | conversion to 1,5-cz-[Ln(Lig)] from 1,5-cz-Lig, Er^III ([7]; B: 1 week at 80° C.): 0% | conversion to 1,5-cz-[Ln(Lig)] from 1,5-cz-Lig, Eu^III ([7]; B: 1 week at 80° C.): 0% | conversion to 1,5-cz-[Ln(Lig)] from 1,5-cz-Lig, Gd^III ([7]; B: 1 week at 80° C.): 0% | conversion to 1,5-cz-[Ln(Lig)] from 1,5-cz-Lig, Ho^III ([7]; B: 1 week at 80° C.): 0% | conversion to 1,5-cz-[Ln(Lig)] from 1,5-cz-Lig, La^III ([7]; B: 1 week at 80° C.): 0% | conversion to 1,5-cz-[Ln(Lig)] from 1,5-cz-Lig, Lu^III ([7]; B: 1 week at 80° C.): 0% | conversion to 1,5-cz-[Ln(Lig)] from 1,5-cz-Lig, Nd^III ([7]; B: 1 week at 80° C.): 0% | conversion to 1,5-cz-[Ln(Lig)] from 1,5-cz-Lig, Pr^III ([7]; B: 1 week at 80° C.): 0% | conversion to 1,5-cz-[Ln(Lig)] from 1,5-cz-Lig, Sm^III ([7]; B: 1 week at 80° C.): 0% | conversion to 1,5-cz-[Ln(Lig)] from 1,5-cz-Lig, Tb^III ([7]; B: 1 week at 80° C.): 0% | conversion to 1,5-cz-[Ln(Lig)] from 1,5-cz-Lig, Tm^III ([7]; B: 1 week at 80° C.): 0% | conversion to 1,5-cz-[Ln(Lig)] from 1,5-cz-Lig, Yb^III ([7]; B: 1 week at 80° C.): 0% | conversion to 1,5-cz-[Ln(Lig)] from 1,5-cz-Lig, Gd^III ([7]; C: ~6 months at 80° C.): 0% | conversion to 1,5-cz-[Ln(Lig)] from 1,5-cz-Lig, Lu^III ([7]; C: ~6 months at 80° C.): 0%

[N-]=[N+]=NCc1cc(-c2ccc(C(=O)O)cc2)cc(CN2CCN(CC(=O)O)CCN(Cc3cccc(C#CCN)n3)CCN(CC(=O)O)CC2)n1 [TD750]
conversion to 1,5-cz-[Ln(Lig)], Gd^III ([8]; after 1 hour at 80° C. (A)): 3% | conversion to 1,5-cz-[Ln(Lig)], Gd^III ([8]; after 18 hours at 80° C. (B)): 9% | conversion to 1,5-cz-[Ln(Lig)], Lu^III ([8]; after 1 hour at 80° C. (A)): 19% | conversion to 1,5-cz-[Ln(Lig)], Lu^III ([8]; after 18 hours at 80° C. (B)): 71%

— patent US20250147039A1, “Compounds for complexation of rare earth elements and/or s-, p-, d- block metals, their coordination compounds, peptide conjugates, method of their preparation and use thereof” (USTAV ORGANICKE CHEMIE A BIOCHEMIE AV CR V.V.I., priority 2021, published 2025)
